Assay [1] concerns HEL. Nature of the assay: Induction of apoptosis in HEL cells assessed as late apoptotic cells at 5 uM after 48 hrs by Annexin V-FITC/propidium iodide staining based flow cytometry (reference value: 3.3%). In kind it is functional, Homo sapiens. In general terms: Flow cytometry measures light scatter and fluorescence of single cells or particles in a stream.
Assay [2] relates to HEL. The assay can be described thus: Induction of apoptosis in HEL cells assessed as early apoptotic cells at 2.5 uM after 24 hrs by Annexin V-FITC/propidium iodide staining based flow cytometry (reference value: 9.9%). In kind it is functional, Homo sapiens.
Assay [3] has as its system HEL. The assay can be described thus: Induction of apoptosis in HEL cells assessed as late apoptotic cells at 5 uM after 24 hrs by Annexin V-FITC/propidium iodide staining based flow cytometry (reference value: 1.2%). The assay is classed as functional, Homo sapiens.
Assay [4] deals with HEL. The assay can be described thus: Induction of apoptosis in HEL cells assessed as necrotic cells at 10 uM after 48 hrs by Annexin V-FITC/propidium iodide staining based flow cytometry (reference value: 0.5%). The assay is classed as functional, Homo sapiens.
Assay [5] deals with HEL. Nature of the assay: Induction of apoptosis in HEL cells assessed as necrotic cells at 10 uM after 24 hrs by Annexin V-FITC/propidium iodide staining based flow cytometry (reference value: 0.2%). The assay is classed as functional, Homo sapiens.
For assay [6], the system named is HEL. The assay can be described thus: Induction of apoptosis in HEL cells assessed as late apoptotic cells at 2.5 uM after 24 hrs by Annexin V-FITC/propidium iodide staining based flow cytometry (reference value: 1.2%). In kind it is functional, Homo sapiens.
Assay [7] deals with HEL. The assay can be described thus: Induction of morphological changes in HEL cells assessed as cell fragmentation at 5 uM after 48 hrs by microscopic analysis. In kind it is functional, cell-based. To be noted: Homo sapiens.
Assay [8] deals with HEL. The assay can be described thus: Cell cycle arrest in HEL cells assessed as accumulation at G2/M phase at 5 uM after 48 hrs propidium iodide staining based flow cytometry (reference value: 14.33%). The assay is classed as functional, Homo sapiens.
Assay [9] concerns HEL. The assay can be described thus: Induction of apoptosis in HEL cells assessed as late apoptotic cells at 10 uM after 48 hrs by Annexin V-FITC/propidium iodide staining based flow cytometry (reference value: 3.3%). In kind it is functional, Homo sapiens.
The test system of assay [10] is HEL. The assay can be described thus: Induction of apoptosis in HEL cells assessed as necrotic cells at 5 uM after 48 hrs by Annexin V-FITC/propidium iodide staining based flow cytometry (reference value: 0.5%). In kind it is functional, Homo sapiens.
The subject of assay [11] is HEL. The assay can be described thus: Cell cycle arrest in HEL cells assessed as accumulation at G0/G1 phase at 5 uM after 48 hrs propidium iodide staining based flow cytometry (reference value: 37.72%). The assay is classed as functional, Homo sapiens.
The test system of assay [12] is HEL. The assay can be described thus: Induction of apoptosis in HEL cells assessed as viable cells at 5 uM after 48 hrs by Annexin V-FITC/propidium iodide staining based flow cytometry (reference value: 88.3%). The following applies: Homo sapiens, read-out: Activity. The assay is classed as functional.
The test system of assay [13] is HEL. The assay can be described thus: Induction of apoptosis in HEL cells assessed as late apoptotic cells at 10 uM after 24 hrs by Annexin V-FITC/propidium iodide staining based flow cytometry (reference value: 1.2%). The assay is classed as functional, Homo sapiens.
Assay [14] deals with HEL. Nature of the assay: Cell cycle arrest in HEL cells assessed as accumulation at S phase at 5 uM after 48 hrs propidium iodide staining based flow cytometry (reference value: 45.65%). In kind it is functional, Homo sapiens.
In assay [15] the test system is HEL. The assay can be described thus: Induction of apoptosis in HEL cells assessed as viable cells at 10 uM after 24 hrs by Annexin V-FITC/propidium iodide staining based flow cytometry (reference value: 88.6%). In kind it is functional. The following applies: Homo sapiens, read-out: Activity.
Assay [16] deals with HEL. Nature of the assay: Antiproliferative activity against HEL cells after 72 hrs by MTT assay. To be noted: Homo sapiens. In kind it is functional, cell-based.
Assay [17] concerns HEL. The assay can be described thus: Induction of apoptosis in HEL cells assessed as viable cells at 2.5 uM after 24 hrs by Annexin V-FITC/propidium iodide staining based flow cytometry (reference value: 88.6%). The assay is classed as functional. The following applies: Homo sapiens, read-out: Activity.
In assay [18] the test system is HEL. Nature of the assay: Down regulation of full-length PARP1 expression in HEL cells at 2.5 to 10 uM after 24 hrs by Western blot analysis. The assay is classed as functional, cell-based. To be noted: Homo sapiens. In general terms: In western blotting, separated proteins are transferred to a membrane and probed.
The test system of assay [19] is HEL. The assay can be described thus: Up regulation of cleaved caspase3 expression in HEL cells at 2.5 to 10 uM after 24 hrs by Western blot analysis. In kind it is functional, cell-based. To be noted: Homo sapiens.
In assay [20] the test system is HEL. Nature of the assay: Induction of apoptosis in HEL cells assessed as necrotic cells at 2.5 uM after 24 hrs by Annexin V-FITC/propidium iodide staining based flow cytometry (reference value: 0.2%). In kind it is functional, Homo sapiens.
Assay [21] deals with HEL. Nature of the assay: Induction of apoptosis in HEL cells assessed as late apoptotic cells at 2.5 uM after 48 hrs by Annexin V-FITC/propidium iodide staining based flow cytometry (reference value: 3.3%). The assay is classed as functional, Homo sapiens.
Assay [22] has as its system HEL. The assay can be described thus: Up regulation of Bax expression in HEL cells after 24 hrs by Western blot analysis. In kind it is functional, cell-based. The following applies: Homo sapiens.
Assay [23] deals with HEL. The assay can be described thus: Down regulation of cyclin D1 expression in HEL cells at 2.5 to 10 uM after 24 hrs by Western blot analysis. The assay is classed as functional, cell-based. The following applies: Homo sapiens.
Assay [24] deals with HEL. The assay can be described thus: Induction of apoptosis in HEL cells assessed as viable cells at 5 uM after 24 hrs by Annexin V-FITC/propidium iodide staining based flow cytometry (reference value: 88.6%). The assay is classed as functional. To be noted: Homo sapiens, read-out: Activity.
Assay [25] concerns HEL. The assay can be described thus: Induction of apoptosis in HEL cells assessed as viable cells at 10 uM after 48 hrs by Annexin V-FITC/propidium iodide staining based flow cytometry (reference value: 88.3%). In kind it is functional. To be noted: Homo sapiens, read-out: Activity.
Assay [26] deals with HEL. Nature of the assay: Induction of apoptosis in HEL cells assessed as early apoptotic cells at 10 uM after 48 hrs by Annexin V-FITC/propidium iodide staining based flow cytometry (reference value: 8%). The assay is classed as functional, Homo sapiens.
In assay [27] the test system is HEL. Nature of the assay: Induction of apoptosis in HEL cells assessed as necrotic cells at 5 uM after 24 hrs by Annexin V-FITC/propidium iodide staining based flow cytometry (reference value: 0.2%). The assay is classed as functional, Homo sapiens.
Assay [28] deals with HEL. The assay can be described thus: Induction of morphological changes in HEL cells at 2.5 uM after 48 hrs by microscopic analysis. In kind it is functional, cell-based. The following applies: Homo sapiens.
The subject of assay [29] is HeLa. The assay can be described thus: Antiproliferative activity against human HeLa cells after 72 hrs by MTT assay. The assay is classed as functional, cell-based. For orientation: Tetrazolium assays rely on reduction of a dye to a coloured formazan, in cell work by metabolically active cells.
The test system of assay [30] is HEL. The assay can be described thus: Induction of apoptosis in HEL cells assessed as early apoptotic cells at 10 uM after 24 hrs by Annexin V-FITC/propidium iodide staining based flow cytometry (reference value: 9.9%). The assay is classed as functional, Homo sapiens.
The subject of assay [31] is HEL. Nature of the assay: Down regulation of Bcl2 expression in HEL cells after 24 hrs by Western blot analysis. To be noted: Homo sapiens. In kind it is functional, cell-based.
For assay [32], the system named is HEL. Nature of the assay: Induction of apoptosis in HEL cells assessed as early apoptotic cells at 2.5 uM after 48 hrs by Annexin V-FITC/propidium iodide staining based flow cytometry (reference value: 8%). In kind it is functional, Homo sapiens.
Assay [33] deals with A549. The assay can be described thus: Antiproliferative activity against human A549 cells after 72 hrs by MTT assay. In kind it is functional, cell-based. The following applies: A549, 72 h.
In assay [34] the test system is HEL. Nature of the assay: Induction of morphological changes in HEL cells assessed as cell shrinkage at 5 uM after 48 hrs by microscopic analysis. The assay is classed as functional, cell-based. To be noted: Homo sapiens.
The test system of assay [35] is K562. Nature of the assay: Antiproliferative activity against human K562 cells after 72 hrs by MTT assay. In kind it is functional, cell-based. The following applies: K562, 72 h.
In assay [36] the test system is HEL. Nature of the assay: Induction of cell death in HEL cells at 10 uM after 48 hrs by microscopic analysis. In kind it is functional, cell-based. The following applies: Homo sapiens.
For assay [37], the system named is HEL. Nature of the assay: Induction of apoptosis in HEL cells assessed as early apoptotic cells at 5 uM after 48 hrs by Annexin V-FITC/propidium iodide staining based flow cytometry (reference value: 8%). In kind it is functional, Homo sapiens.
The test system of assay [38] is HEL. The assay can be described thus: Induction of apoptosis in HEL cells assessed as early apoptotic cells at 5 uM after 24 hrs by Annexin V-FITC/propidium iodide staining based flow cytometry (reference value: 9.9%). The assay is classed as functional, Homo sapiens.
For assay [39], the system named is HEL. The assay can be described thus: Induction of apoptosis in HEL cells assessed as viable cells at 2.5 uM after 48 hrs by Annexin V-FITC/propidium iodide staining based flow cytometry (reference value: 88.3%). In kind it is functional. To be noted: Homo sapiens, read-out: Activity.
Assay [40] concerns MCF7. The assay can be described thus: Antiproliferative activity against human MCF7 cells after 72 hrs by MTT assay. In kind it is functional, cell-based. To be noted: MCF7, 72 h.
The test system of assay [41] is HEL. The assay can be described thus: Induction of apoptosis in HEL cells assessed as necrotic cells at 2.5 uM after 48 hrs by Annexin V-FITC/propidium iodide staining based flow cytometry (reference value: 0.5%). The assay is classed as functional, Homo sapiens.

The structures appear in SMILES notation. Calls of active or inactive are those of the source. The calls are words filed in the database; no cut-off is given here. Some results are limits rather than exact numbers.

Usually IC50 stands for the point on the concentration scale where inhibition reaches its midpoint.

Take `CC(C)=CC[C@H]1C[C@]23C[C@@H](CC=C(C)C)C(C)(C)[C@H]4CCC(C)(C)O[C@]42OC(=O)C(C(=O)c2ccc(O)c(O)c2)=C3OC1(C)C`: the Activity in [1] is 5.8%; in assay [2], 10.6%; in assay [3] it was 3.3%; in [4], 2.4%; in assay [5] it was 0.8%; in assay [6] it was 2.3%. The Activity in assay [8] was found to be 10.76%; in assay [9] it was 15.9%; in assay [10] it was 0.6%; in assay [11], 59.29%; in assay [13] it was 3%; in assay [14] it was 28.81%. For the same molecule, the Activity was 0.4% in assay [20]; 6.4% in assay [21]; “Dose-dependent effect” in assay [22]; 32.5% in [26]; 0.4% in [27]; 34.6% in [30]. Also, the Activity result is “Dose-dependent effect” in assay [31]; 7.2% in [32]; 21% in assay [37]; 15.3% in [38]; 1.6% in assay [41]. Moreover, the result in assay [7], in [18], in assay [19], in assay [23], in assay [28] and in assay [34] was Active. The outcome in [36] was Active. For the same molecule, the viability at 5 µM in assay [12] stood at 72.6%; in assay [24], 80.9%. Also, the values for the viability at 10 µM in [15] and in assay [25] were 61.6% and 49.2%, respectively. Besides, the IC50 in assay [16] was 4.79 µM; in [29], more than 20 µM; in assay [33], more than 20 µM; in assay [35], 7.69 µM; in assay [40] it was 13.5 µM. Further, the viability at 2.5 µM in [17] came to 86.6%; in assay [39], 84.8%.

For the molecule `CCCCCCCC(=O)Oc1cc(C(=O)C2=C3OC(C)(C)[C@@H](CC=C(C)C)C[C@@]34C[C@@H](CC=C(C)C)C(C)(C)[C@H]3CCC(C)(C)O[C@]34OC2=O)ccc1O`, the IC50 is 18.7 µM in assay [16]; more than 20 µM in assay [29]; more than 20 µM in assay [33]; 15.3 µM in assay [35]; more than 20 µM in assay [40].

With `C=CCOc1ccc(C(=O)C2=C3OC(C)(C)[C@@H](CC=C(C)C)C[C@@]34C[C@@H](CC=C(C)C)C(C)(C)[C@@](CC=C(C)C)(C2=O)C4=O)cc1OCC=C`, the IC50 is more than 20 µM in assay [16]; 15.8 µM in assay [29]; more than 20 µM in assay [33]; more than 20 µM in assay [35]; more than 20 µM in assay [40].

Source of the values: ChEMBL document CHEMBL4382259, “Synthesis of novel guttiferone E and xanthochymol derivatives with cytotoxicities by inducing cell apoptosis and arresting the cell cycle phase” (Eur J Med Chem, 2019).
